Several values for one entry are separate records, joined by “and”; a condition that tells them apart may be missing. Equal values may be shown once. Toxic doses and inconclusive results are not listed. The calls were made as follows: active = survival T/C of 150% or more; inactive = T/C below 125% in these data. Peptide text beside a SMILES is read from it. * marks the point of attachment. Cbz = O=C(OCc1ccccc1)*
Test system: P388 leukemia ip, CD2F1 mice, survival T/C
Assay: NCI In Vivo Anticancer Drug Screen. Data for tumor model P388 Leukemia (intraperitoneal) in CD2F1 (CDF1) mice
Conditions: endpoint: median survival time, higher = longer survival
Method in brief: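 Mice carrying the transplanted tumor received test compound or vehicle. Survival was recorded in each group, and the value is the treated-group measurement divided by that of the vehicle-treated control group.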

[1] = dose: 100.0 mg/kg/injection, schedule: Q01DX009 (ip), vehicle: saline with Tween-80
[2] = dose: 60.0 mg/kg/injection, schedule: Q01DX005 (ip), vehicle: saline with Tween-80
[3] = dose: 120.0 mg/kg/injection, schedule: Q01DX005 (ip), vehicle: saline with Tween-80
[4] = dose: 240.0 mg/kg/injection, schedule: Q01DX005 (ip), vehicle: saline with Tween-80
[5] = dose: 50.0 mg/kg/injection, schedule: Q01DX009 (ip), vehicle: Klucel (hydroxypropylcellulose) (HPC)
[6] = dose: 100.0 mg/kg/injection, schedule: Q01DX009 (ip), vehicle: Klucel (hydroxypropylcellulose) (HPC)
[7] = dose: 200.0 mg/kg/injection, schedule: Q01DX009 (ip), vehicle: Klucel (hydroxypropylcellulose) (HPC)
[8] = dose: 25.0 mg/kg/injection, schedule: Q01DX009 (ip), vehicle: saline
[9] = dose: 50.0 mg/kg/injection, schedule: Q01DX009 (ip), vehicle: saline
[10] = dose: 25.0 mg/kg/injection, schedule: Q01DX009 (ip), vehicle: saline with Tween-80
[11] = dose: 100.0 mg/kg/injection, schedule: Q01DX009 (ip), vehicle: saline
[12] = dose: 200.0 mg/kg/injection, schedule: Q01DX009 (ip), vehicle: saline
[13] = dose: 100.0 mg/kg/injection, schedule: Q04DX003 (ip), vehicle: saline with Tween-80
[14] = dose: 200.0 mg/kg/injection, schedule: Q04DX003 (ip), vehicle: saline with Tween-80
[15] = dose: 50.0 mg/kg/injection, schedule: Q01DX005 (ip), vehicle: saline with Tween-80
[16] = dose: 100.0 mg/kg/injection, schedule: Q01DX005 (ip), vehicle: saline with Tween-80
[17] = dose: 200.0 mg/kg/injection, schedule: Q01DX005 (ip), vehicle: saline with Tween-80
[18] = dose: 50.0 mg/kg/injection, schedule: Q01DX005 (ip), vehicle: Klucel (hydroxypropylcellulose) (HPC)
[19] = dose: 100.0 mg/kg/injection, schedule: Q01DX005 (ip), vehicle: Klucel (hydroxypropylcellulose) (HPC)
[20] = dose: 200.0 mg/kg/injection, schedule: Q01DX005 (ip), vehicle: Klucel (hydroxypropylcellulose) (HPC)

Measured: T/C

CC(=O)Nc1ccc(C(=O)C=O)cc1
inactive: [1] 119 % of control

Cc1ccc(NC(=O)Nc2nccs2)cc1
inactive: dose: 12.5 mg/kg/injection, schedule: Q01DX009 (ip), vehicle: distilled water + Tween-80 101 % of control | dose: 25.0 mg/kg/injection, schedule: Q01DX009 (ip), vehicle: distilled water + Tween-80 99 % of control | dose: 50.0 mg/kg/injection, schedule: Q01DX009 (ip), vehicle: distilled water + Tween-80 90 % of control | dose: 100.0 mg/kg/injection, schedule: Q01DX009 (ip), vehicle: distilled water + Tween-80 99 % of control | dose: 200.0 mg/kg/injection, schedule: Q01DX009 (ip), vehicle: distilled water + Tween-80 105 % of control

O=c1c2ccc(Cl)cc2nc2nc(-c3ccccc3)c3cc(Cl)ccc3n12
inactive: [2] 107 % of control | [3] 106 % of control | [4] 97 % of control

CCCCCCCCCC(=O)Nc1ncc([N+](=O)[O-])s1
inactive: [5] 94 % of control | [6] 91 % of control | [7] 94 % of control

CCCCCCCCCCCCCCN1CCOCC1
inactive: dose: 12.5 mg/kg/injection, schedule: Q01DX009 (ip), vehicle: saline 94 % of control | [8] 100 % of control | [9] 100 % of control and 98 % of control

O=C(/C(=C(/[O-])C(F)(F)F)[n+]1ccc2ccccc2c1)C(F)(F)F
inactive: dose: 100.0 mg/kg/injection, schedule: Q01DX001 (ip), vehicle: saline with Tween-80 100 % of control | dose: 200.0 mg/kg/injection, schedule: Q01DX001 (ip), vehicle: saline with Tween-80 100 % of control and 112 % of control | dose: 400.0 mg/kg/injection, schedule: Q01DX001 (ip), vehicle: saline with Tween-80 104 % of control and 97 % of control

CC1C(=O)C(C)C(c2ccccc2)OC1c1ccccc1 (stereo unspecified)
inactive: dose: 50.0 mg/kg/injection, schedule: Q04DX003 (ip), vehicle: saline 97 % of control | dose: 100.0 mg/kg/injection, schedule: Q04DX003 (ip), vehicle: saline 100 % of control | dose: 200.0 mg/kg/injection, schedule: Q04DX003 (ip), vehicle: saline 107 % of control

O=S(=O)(c1ccc(Cl)cc1)N(CCCCCN(S(=O)(=O)c1ccc(Cl)cc1)S(=O)(=O)c1ccc(Cl)cc1)S(=O)(=O)c1ccc(Cl)cc1
inactive: dose: 30.0 mg/kg/injection, schedule: Q01DX005 (ip), vehicle: Klucel (hydroxypropylcellulose) (HPC) 94 % of control | dose: 60.0 mg/kg/injection, schedule: Q01DX005 (ip), vehicle: Klucel (hydroxypropylcellulose) (HPC) 105 % of control | dose: 120.0 mg/kg/injection, schedule: Q01DX005 (ip), vehicle: Klucel (hydroxypropylcellulose) (HPC) 96 % of control | dose: 240.0 mg/kg/injection, schedule: Q01DX005 (ip), vehicle: Klucel (hydroxypropylcellulose) (HPC) 93 % of control

CN1CCC(C(=O)O)(c2ccccc2)CC1
inactive: dose: 9.4 mg/kg/injection, schedule: Q01DX009 (ip), vehicle: saline with Tween-80 100 % of control | dose: 18.8 mg/kg/injection, schedule: Q01DX009 (ip), vehicle: saline with Tween-80 98 % of control | dose: 37.5 mg/kg/injection, schedule: Q01DX009 (ip), vehicle: saline with Tween-80 97 % of control | dose: 75.0 mg/kg/injection, schedule: Q01DX009 (ip), vehicle: saline with Tween-80 111 % of control

C1CCC(N2OC23CCCCC3)CC1 (stereo unspecified)
inactive: [10] 113 % of control | dose: 50.0 mg/kg/injection, schedule: Q01DX009 (ip), vehicle: saline with Tween-80 117 % of control | [1] 123 % of control | dose: 200.0 mg/kg/injection, schedule: Q01DX009 (ip), vehicle: saline with Tween-80 113 % of control

O=C1CCc2cc(O)ccc21
inactive: [8] 108 % of control | [9] 94 % of control | [11] 98 % of control | [12] 100 % of control

CC1CCN(C(=O)c2cc(Nc3ccnc4cc(Cl)ccc34)ccc2O)CC1
inactive: dose: 100.0 mg/kg/injection, schedule: Q04DX002 (ip), vehicle: saline with Tween-80 99 % of control | dose: 200.0 mg/kg/injection, schedule: Q04DX002 (ip), vehicle: saline with Tween-80 99 % of control | dose: 400.0 mg/kg/injection, schedule: Q04DX002 (ip), vehicle: saline with Tween-80 89 % of control

N=c1ncn(C2OC(CO)C(O)C2O)c2nc(Br)[nH]c12 (stereo unspecified)
inactive: dose: 25.0 mg/kg/injection, schedule: Q04DX003 (ip), vehicle: saline with Tween-80 100 % of control | dose: 50.0 mg/kg/injection, schedule: Q04DX003 (ip), vehicle: saline with Tween-80 105 % of control | [13] 100 % of control | [14] 98 % of control

N=C(N)SCCC(=O)Nc1ccccc1
inactive: [13] 106 % of control | [14] 106 % of control

O=C(O)C(CS(=O)(=O)O)Nc1ncnc2nc[nH]c12 (stereo unspecified)
inactive: [11] 100 % of control | [12] 100 % of control | dose: 400.0 mg/kg/injection, schedule: Q01DX009 (ip), vehicle: saline 109 % of control

NC(=O)C1CCCN1C(=O)C(Cc1ccc(O)cc1)NC(=O)OCc1ccccc1 (stereo not drawn) (Cbz-Tyr-Pro-NH2; configuration not given here)
inactive: [15] 104 % of control | [16] 97 % of control | [17] 94 % of control

CC1=CC[C@@H](Br)C(C)(C)[C@]12CC[C@]1(C)O[C@@H]1C2
inactive: dose: 12.5 mg/kg/injection, schedule: Q01DX005 (ip), vehicle: saline + alcohol 110 % of control | dose: 25.0 mg/kg/injection, schedule: Q01DX005 (ip), vehicle: saline + alcohol 110 % of control | dose: 50.0 mg/kg/injection, schedule: Q01DX005 (ip), vehicle: saline + alcohol 105 % of control | dose: 100.0 mg/kg/injection, schedule: Q01DX005 (ip), vehicle: saline + alcohol 105 % of control

CCN(CC)CCNc1cccc2oc3ccc(OS(=O)(=O)c4ccc(C)cc4)cc3c(=O)c12
inactive: [15] 97 % of control | [16] 100 % of control | [17] 102 % of control

Cc1cc(NC(=O)CCc2ccc(N3C(N)=NC(N)=NC3(C)C)cc2)ccc1S(=O)(=O)F
inactive: dose: 1.5 mg/kg/injection, schedule: Q01DX009 (ip), vehicle: saline sonified 122 % of control | [1] 113 % of control
active: [10] 150 % of control

Cc1c(C)c2ccc3occc(=O)c3c2oc1=O
inactive: [15] 102 % of control | [16] 101 % of control | [17] 100 % of control

CN(C)c1ccc2c(Cl)cc(Cl)nc2c1
inactive: dose: 12.5 mg/kg/injection, schedule: Q01DX009 (ip), vehicle: Klucel (hydroxypropylcellulose) (HPC) 109 % of control | dose: 25.0 mg/kg/injection, schedule: Q01DX009 (ip), vehicle: Klucel (hydroxypropylcellulose) (HPC) 109 % of control | [5] 107 % of control | [6] 106 % of control | [7] 103 % of control | dose: 400.0 mg/kg/injection, schedule: Q01DX009 (ip), vehicle: Klucel (hydroxypropylcellulose) (HPC) 104 % of control

O=c1c2sc3ccccc3c2ncn1/N=C/c1cccc([N+](=O)[O-])c1
inactive: [18] 99 % of control | [19] 92 % of control | [20] 91 % of control

NC1C(=O)NC(=O)NC1=O
inactive: dose: 25.0 mg/kg/injection, schedule: Q01DX005 (ip), vehicle: Klucel (hydroxypropylcellulose) (HPC) 96 % of control | [18] 96 % of control | [19] 98 % of control | [20] 100 % of control | dose: 400.0 mg/kg/injection, schedule: Q01DX005 (ip), vehicle: Klucel (hydroxypropylcellulose) (HPC) 105 % of control

CC(C)(C)OOC(=O)C1CCCCC1
inactive: [2] 100 % of control | [3] 103 % of control | [4] 92 % of control

CC(C)CC(NC(=O)C(Cc1ccccc1)NC(=O)CNC(=O)C(C)NC(=O)C(N)Cc1ccc(O)cc1)C(=O)O (stereo unspecified)
inactive: [15] 93 % of control | [16] 109 % of control | [17] 91 % of control

CSP(C)(=O)CCC(C)=O (stereo unspecified)
inactive: dose: 25.0 mg/kg/injection, schedule: Q01DX001 (ip), vehicle: saline 100 % of control | dose: 50.0 mg/kg/injection, schedule: Q01DX001 (ip), vehicle: saline 100 % of control | dose: 100.0 mg/kg/injection, schedule: Q01DX001 (ip), vehicle: saline 102 % of control

CC(C)(C)c1ccc2c(O)c(C(C)(C)C)cc(-c3ccccc3)c2c1
inactive: [9] 107 % of control | [11] 110 % of control | [12] 106 % of control

Reference: PubChem BioAssay AID330 (DTP/NCI, 2004)
